Data as given in ChEMBL document CHEMBL3885881, “DrugMatrix”.

Species: Rattus norvegicus
Test: DrugMatrix - Regimen: Daily Repeat
Assay type: toxicity, organism-based, Sprague-Dawley
Parameters: regimen Daily Repeat, gender Male, age 6-8 weeks
Details: in vivo, po, 750 mg/kg, route oral GAVAGE, dose level High, vehicle .5 % CMC; for ABSOLUTE BASOPHIL / ABSOLUTE EOSINOPHIL / ABSOLUTE LYMPHOCYTE / ABSOLUTE MONOCYTE / ABSOLUTE SEGMENTED NEUTROPHIL / BASOPHIL / EOSINOPHIL / ERYTHROCYTE COUNT / HEMATOCRIT / HEMOGLOBIN / LEUKOCYTE COUNT / LYMPHOCYTE / MEAN CORPUSCULAR HEMOGLOBIN / MEAN CORPUSCULAR HEMOGLOBIN CONCENTRATION / MEAN CORPUSCULAR VOLUME / MONOCYTE / NEUTROPHIL / NUCLEATED RED BLOOD CELLS / PLATELET COUNT: tissue Blood; for ALANINE AMINOTRANSFERASE / ALBUMIN / ALKALINE PHOSPHATASE / ASPARTATE AMINOTRANSFERASE / BLOOD UREA NITROGEN / CARBON DIOXIDE / CHLORIDE / CHOLESTEROL / CREATINE PHOSPHOKINASE / CREATININE / GLUCOSE / LACTATE DEHYDROGENASE / LIPASE / PHOSPHORUS / POTASSIUM / SODIUM / TOTAL BILIRUBIN / TOTAL PROTEIN / URIC ACID: tissue Plasma

CC(=O)OC[C@H]1O[C@@H](n2ncc(=O)[nH]c2=O)[C@H](OC(C)=O)[C@@H]1OC(C)=O [AZARIBINE]
ABSOLUTE BASOPHIL (72 h, time 3 day): 0 CELLS/uL | ABSOLUTE EOSINOPHIL (72 h, time 3 day): 37.33 CELLS/uL | ABSOLUTE LYMPHOCYTE (72 h, time 3 day): 11597.33 CELLS/uL | ABSOLUTE MONOCYTE (72 h, time 3 day): 87.33 CELLS/uL | ABSOLUTE SEGMENTED NEUTROPHIL (72 h, time 3 day): 844.67 CELLS/uL | BASOPHIL (72 h, time 3 day): 0% | EOSINOPHIL (72 h, time 3 day): 0.33% | ERYTHROCYTE COUNT (72 h, time 3 day): 4.98 x10E6/uL | HEMATOCRIT (72 h, time 3 day): 31.27% | HEMOGLOBIN (72 h, time 3 day): 11.73 G/DL | LEUKOCYTE COUNT (72 h, time 3 day): 12.57 x10E3/uL | LYMPHOCYTE (72 h, time 3 day): 92% | MEAN CORPUSCULAR HEMOGLOBIN (72 h, time 3 day): 23.63 pg | MEAN CORPUSCULAR HEMOGLOBIN CONCENTRATION (72 h, time 3 day): 37.53 G/DL | MEAN CORPUSCULAR VOLUME (72 h, time 3 day): 62.9 fL | MONOCYTE (72 h, time 3 day): 0.67% | NEUTROPHIL (72 h, time 3 day): 7% | NUCLEATED RED BLOOD CELLS (72 h, time 3 day): 0 /100WBC | PLATELET COUNT (72 h, time 3 day): 1125.67 x10E3/uL | ALANINE AMINOTRANSFERASE (72 h, time 3 day): 29 u/L | ALBUMIN (72 h, time 3 day): 4.23 G/DL | ALKALINE PHOSPHATASE (72 h, time 3 day): 344 u/L | ASPARTATE AMINOTRANSFERASE (72 h, time 3 day): 95.33 u/L | BLOOD UREA NITROGEN (72 h, time 3 day): 18 mg/dL | CARBON DIOXIDE (72 h, time 3 day): 25.67 mmol/L | CHLORIDE (72 h, time 3 day): 101 MEQ/L | CHOLESTEROL (72 h, time 3 day): 66 mg/dL | CREATINE PHOSPHOKINASE (72 h, time 3 day): 781.33 u/L | CREATININE (72 h, time 3 day): 0.22 mg/dL | GLUCOSE (72 h, time 3 day): 147.33 mg/dL | LACTATE DEHYDROGENASE (72 h, time 3 day): 248.33 u/L | LIPASE (72 h, time 3 day): 10.33 u/L | PHOSPHORUS (72 h, time 3 day): 12.2 mg/dL | POTASSIUM (72 h, time 3 day): 5.97 MEQ/L | SODIUM (72 h, time 3 day): 141.5 MEQ/L | TOTAL BILIRUBIN (72 h, time 3 day): 0.2 mg/dL | TOTAL PROTEIN (72 h, time 3 day): 6.1 G/DL | URIC ACID (72 h, time 3 day): 1.43 mg/dL | ABSOLUTE BASOPHIL (120 h, time 5 day): 0 CELLS/uL | ABSOLUTE EOSINOPHIL (120 h, time 5 day): 49.33 CELLS/uL | ABSOLUTE LYMPHOCYTE (120 h, time 5 day): 12972.67 CELLS/uL | ABSOLUTE MONOCYTE (120 h, time 5 day): 95.67 CELLS/uL | ABSOLUTE SEGMENTED NEUTROPHIL (120 h, time 5 day): 649 CELLS/uL | BASOPHIL (120 h, time 5 day): 0% | EOSINOPHIL (120 h, time 5 day): 0.33% | ERYTHROCYTE COUNT (120 h, time 5 day): 5 x10E6/uL | HEMATOCRIT (120 h, time 5 day): 29.63% | HEMOGLOBIN (120 h, time 5 day): 11.47 G/DL | LEUKOCYTE COUNT (120 h, time 5 day): 13.77 x10E3/uL | LYMPHOCYTE (120 h, time 5 day): 94.33% | MEAN CORPUSCULAR HEMOGLOBIN (120 h, time 5 day): 22.93 pg | MEAN CORPUSCULAR HEMOGLOBIN CONCENTRATION (120 h, time 5 day): 38.7 G/DL | MEAN CORPUSCULAR VOLUME (120 h, time 5 day): 59.27 fL | MONOCYTE (120 h, time 5 day): 0.67% | NEUTROPHIL (120 h, time 5 day): 4.67% | NUCLEATED RED BLOOD CELLS (120 h, time 5 day): 0 /100WBC | PLATELET COUNT (120 h, time 5 day): 1279 x10E3/uL | ALANINE AMINOTRANSFERASE (120 h, time 5 day): 26.67 u/L | ALBUMIN (120 h, time 5 day): 4.07 G/DL | ALKALINE PHOSPHATASE (120 h, time 5 day): 306.67 u/L | ASPARTATE AMINOTRANSFERASE (120 h, time 5 day): 81.33 u/L | BLOOD UREA NITROGEN (120 h, time 5 day): 15.33 mg/dL | CARBON DIOXIDE (120 h, time 5 day): 30.33 mmol/L | CHLORIDE (120 h, time 5 day): 98.67 MEQ/L | CHOLESTEROL (120 h, time 5 day): 73.67 mg/dL | CREATINE PHOSPHOKINASE (120 h, time 5 day): 266 u/L | CREATININE (120 h, time 5 day): 0.22 mg/dL | GLUCOSE (120 h, time 5 day): 135.67 mg/dL | LACTATE DEHYDROGENASE (120 h, time 5 day): 347 u/L | LIPASE (120 h, time 5 day): 10 u/L | PHOSPHORUS (120 h, time 5 day): 11.07 mg/dL | POTASSIUM (120 h, time 5 day): 6.41 MEQ/L | SODIUM (120 h, time 5 day): 142.17 MEQ/L | TOTAL BILIRUBIN (120 h, time 5 day): 0.1 mg/dL | TOTAL PROTEIN (120 h, time 5 day): 6 G/DL | URIC ACID (120 h, time 5 day): 1.37 mg/dL
